# “Also recorded” adds a separate entry of the source. Where a name gives a salt, the structure may show the parent alone. Read-outs that look alike come from different tables or passages of the source.
# Assays:
# [1] = test system: peptide 1 (A-beta1-42 peptide); assay: CD titration of iron-complexed peptide 1 with silanes (Example 9); assay type: biochemical, human
# NF-M17 = assay: CD titration of NF-M17 peptide/aluminum with silicon compounds (Example 1); assay type: biochemical, human
# in vitro = conditions: human, Caco-2
# A-beta antigen = assay: Slot blot of A-beta antigen extracted from Alzheimer's brain tissue sections (Example 8); set-up: species or system human
# A-beta1-42 peptide [2] = molecular target: T1, A-beta1-42 peptide (Homo sapiens, UniProt P05067); assay type: biochemical
# A-beta1-42 peptide [3] = assay type: biochemical, human
# Caco-2 cells [4] = test system: Caco-2 cells
# A-beta1-42 peptide [5] = molecular target: T1, A-beta1-42 peptide; assay type: biochemical; remark: listed apart in the source
# Caco-2 cells [6] = conditions: for Permeation Coefficient (cm/sec) Mean ± SD, where applicable: human
# T1 sequence (P05067 672-713): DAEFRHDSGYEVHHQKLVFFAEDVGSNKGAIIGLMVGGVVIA
compound,measurement,setting,value
"C[Si](O)(O)CCCC#N [3f, (dihydroxy)methyl(3-cyanopropyl)silane]",return of the helical CD spectrum on titration of iron-complexed peptide 1,[1],"dosage effect is evident, but non-linear"
same,titration point showing the greatest degree of recovery,[1],0.25 eq.
"NCCC[Si](O)(O)O [APST, 3-aminopropylsilantriol]",Restore original spectra?,NF-M17,Yes
same,chelation of aluminum compared to sodium orthosilicate,NF-M17,improved chelation
same,restoration of the CD spectrum of NF-M17/aluminum to its original shape,NF-M17,able to restore
"CC[Si](O)(CC)Cc1ccccc1 [BDS, benzyldiethylsilanol]",Restore original spectra?,NF-M17,No
same,restoration of the CD spectrum of NF-M17/aluminum to its original shape,NF-M17,did not restore
"CCC(C#N)C[Si](C)(Cl)Cl (centres unmarked) [CBMS, 2-cyanobutylmethyldichlorosilane]",Papp A→B,in vitro,6.5 ×10⁻⁶ cm/s
same,Total Extracted,A-beta antigen,5.2 fmol
"C[Si](Cl)(Cl)CCC#N [CEMS, 2-cyanoethylmethyldichlorosilane]",Papp A→B,in vitro,4.6 ×10⁻⁶ cm/s
same,protection of the helical structure of A-beta1-42 against amyloid formation by aluminum (III),A-beta1-42 peptide [2],protection of the helical structure
"CC(C#N)C[Si](C)(Cl)Cl (centres unmarked) [CPMS, 2-cyanopropylmethyldichlorosilane]",Papp A→B,in vitro,6.1 ×10⁻⁶ cm/s
same,Total Extracted,A-beta antigen,6.0 fmol
same,extraction of A-beta antigen from Alzheimer's tissue,A-beta antigen,no detectable antigen
"N#CCCC[Si](Cl)(Cl)Cl [CPTCS, 3-cyanopropyltrichlorosilane]",reversal of the effect of aluminum on the CD spectrum of A-beta1-42,A-beta1-42 peptide [3],Moderate reversal; also recorded: almost full reversal
same,Restore original spectra?,NF-M17,Yes
same,equivalents at which the CD spectrum of NF-M17/aluminum was restored to its original shape,NF-M17,around 32 equivalents
"CC[Si](Cl)(Cl)CC [DCDES, dichlorodiethylsilane]",restoration of the original CD spectrum of A-beta1-42 peptide after exposure to aluminum,A-beta1-42 peptide [3],at least partially restored
same,Restore original spectra?,NF-M17,Yes
same,equivalents at which the CD spectrum of NF-M17/aluminum was restored to its original shape,NF-M17,around 32 equivalents
"CC(C)[Si](Cl)(Cl)C(C)C [DCDIPS, dichlorodiisopropylsilane]",restoration of the original CD spectrum of A-beta1-42 peptide after exposure to aluminum,A-beta1-42 peptide [3],at least partially restored
same,Restore original spectra?,NF-M17,Yes
same,equivalents at which the CD spectrum of NF-M17/aluminum was restored to its original shape,NF-M17,around 32 equivalents
"O[Si](O)(c1ccccc1)c1ccccc1 [DPSD, diphenylsilandiol]",Restore original spectra?,"NF-M17; CD spectrum of NF-M17 with 8 equivalents of aluminum, in TFE",(DMSO interfered with spectra)
same,restoration of the CD spectrum of NF-M17/aluminum to its original shape,"NF-M17; NF-M17 with 8 equivalents of aluminum, in TFE",did not restore
"Cl [HCl, hydrochloric acid, reference compound]",reversing the helix-coil transition by acid,[1],effective for reversing the helix-coil transition
same,extraction of A-beta antigen from Alzheimer's tissue,A-beta antigen,no detectable antigen
"CCCCCC[Si](C)(Cl)Cl [HMDS, hexylmethyldichlorosilane]",restoration of the original CD spectrum of A-beta1-42 peptide after exposure to aluminum,A-beta1-42 peptide [3],at least partially restored
same,Restore original spectra?,NF-M17,Yes
same,equivalents at which the CD spectrum of NF-M17/aluminum was restored to its original shape,NF-M17,around 32 equivalents
"C[Si](Cl)(Cl)c1ccccc1 [MPDS, methylphenyldichlorosilane]",Restore original spectra?,NF-M17,Yes
same,equivalents at which the CD spectrum of NF-M17/aluminum was restored to its original shape,NF-M17,around 32 equivalents
"CCCCCCCC[Si](Cl)(Cl)Cl [OTCS, n-octyltrichlorosilane]",Restore original spectra?,NF-M17,(gelation of OTCS)
same,restoration of the CD spectrum of NF-M17/aluminum to its original shape,NF-M17,did not restore
"C1CC[Si]2(CCCCO2)OC1 [SDSU, 1,7-dioxa-6-sila-spiro[5.5]undecane]",restoration of the original CD spectrum of A-beta1-42 peptide after exposure to aluminum,A-beta1-42 peptide [3],at least partially restored
same,transport across Caco-2 cells,Caco-2 cells [4],significant amount of transport
"CC(=O)O[Si](OC(C)=O)(OC(C)=O)OC(C)=O [TAS, tetraacetooxysilane]",restoration of the original CD spectrum of A-beta1-42 peptide after exposure to aluminum,A-beta1-42 peptide [3],at least partially restored
"CC(C)(C)[Si](C)(C)O [TBDMS, tert-butyldimethylsilanol]",Restore original spectra?,NF-M17,No
same,restoration of the CD spectrum of NF-M17/aluminum to its original shape,NF-M17,did not restore
"CC[Si](O)(CC)CC [TES, triethylsilanol]",restoration of the original CD spectrum of A-beta1-42 peptide after exposure to aluminum,A-beta1-42 peptide [3],at least partially restored
same,Restore original spectra?,NF-M17,No
same,restoration of the CD spectrum of NF-M17/aluminum to its original shape,NF-M17,did not restore
[Zn] [Zinc],effect of the metal on the A-beta1-42 CD spectrum,A-beta1-42 peptide [5],minor or no effects
"C[Si](Cl)(Cl)CC[Si](C)(Cl)Cl [compound 1042, 1,2-(methyldichlorosilyl)ethane]",crossing of the epithelial barrier in the Caco-2 model,Caco-2 cells [6]; Caco-2,crossed the epithelial barrier efficiently
same,permeation of Caco-2 cells relative to mannitol,Caco-2 cells [6]; Caco-2,at least four times greater
same,"Permeation Coefficient (cm/sec) Mean ± SD, where applicable","Caco-2 cells [6]; Caco-2, 60 min, 20 mM",2.5 × 10^−5 (n = 2) cm/sec
same,Total Extracted,"A-beta antigen; Braak V tissue, 1 h at room temperature, corrected for volume dilution",14.0 fmol
same,share of total antigen released to the extract,A-beta antigen; based on the intensity from urea-solubilized tissues,approximately 12%
[Cu] [copper],effect of the metal on the A-beta1-42 CD spectrum,A-beta1-42 peptide [5],strong effects
[Fe+2] [iron (II)],effect of the metal on the A-beta1-42 CD spectrum,A-beta1-42 peptide [5],minor or no effects
[Fe+3] [iron (III)],effect of the metal on the A-beta1-42 CD spectrum,A-beta1-42 peptide [5],strong effects
"O.O.O.O.O.O.O.O.O.O=[Si]([O-])[O-].[Na+].[Na+] [sodium metasilicate, sodium metasilicate nonahydrate, reference compound]",equivalents at which the CD curve began to return / showed some return to its original shape,NF-M17; NF-M17 with 8 equivalents of aluminum,about 32 equivalents
"CN(C)[Si](N(C)C)(N(C)C)N(C)C [tetrakis, tetrakis(dimethylamino)silane]",restoration of the original CD spectrum of A-beta1-42 peptide after exposure to aluminum,A-beta1-42 peptide [3],at least partially restored
(dichloro)methylsilylbutyronitrile [DCMSBN],restoration of the original CD spectrum of A-beta1-42 peptide after exposure to aluminum,A-beta1-42 peptide [3],at least partially restored
same,relative transport across Caco-2 cells (FIG. 29B vs FIG. 29A),Caco-2 cells [4],more transport
same,transport across Caco-2 cells,Caco-2 cells [4],significant amount of transport
same,Restore original spectra?,NF-M17,Yes
same,equivalents at which the CD spectrum of NF-M17/aluminum was restored to its original shape,NF-M17,around 32 equivalents
Aluminum,effect of the metal on the A-beta1-42 CD spectrum,A-beta1-42 peptide [5],decreases with higher concentrations; also recorded: strong effects
dichlorosilacyclobutane [DCSCB],restoration of the original CD spectrum of A-beta1-42 peptide after exposure to aluminum,A-beta1-42 peptide [3],at least partially restored
same,transport across Caco-2 cells,Caco-2 cells [4],significant amount of transport
triethoxysilylbutyronitrile [TESB],permeation of Caco-2 cells relative to mannitol,Caco-2 cells [6]; Caco-2,at least four times greater
same,"Permeation Coefficient (cm/sec) Mean ± SD, where applicable",Caco-2 cells [6]; Caco-2,3.0 × 10^−5 (n = 2) cm/sec
same,restoration of the original CD spectrum of A-beta1-42 peptide after exposure to aluminum,A-beta1-42 peptide [3],at least partially restored; also recorded: reverses aluminum-induced denaturation
same,relative transport across Caco-2 cells (FIG. 29B vs FIG. 29A),Caco-2 cells [4],more transport
same,transport across Caco-2 cells,Caco-2 cells [4],significant amount of transport
triethoxysilylpropionitrile [TESP],restoration of the original CD spectrum of A-beta1-42 peptide after exposure to aluminum,A-beta1-42 peptide [3],at least partially restored
trihydroxysilylmethyl phosphonate [TSMP],permeation of Caco-2 cells relative to mannitol,Caco-2 cells [6]; Caco-2,slower permeation than mannitol
